A word on the IC50: it is the midpoint of a concentration-inhibition curve.

The values below come from article PMC9501633, “Synthesis, Characterisation and Mechanism of Action of Anticancer 3-Fluoroazetidin-2-ones” (Pharmaceuticals, 2022).

One assay concerns Hs578T cells. Kind of assay: AlamarBlue cell viability assay. In kind it is cell-based. The conditions noted are these: Homo sapiens, Hs-578T. On the procedure:
(§1) The potent 3-fluoro-β-lactam compound 33 synthesised was also evaluated in the triple-negative MDA-MB-231 cell line which lacks expression of the estrogen and progesterone receptors (ER/PR) and the HER2 receptor. […]. Compound 32 was also evaluated in the triple-negative breast cancer cell line Hs578T and its isogenic subclone Hs578T(i)8 (Figure 4C). Hs578Ts(i)8 cells have 2.5-fold more migratory capacity and 3-fold more invasive capacity through the extracellular matrix than the parental cell line (Hs578T) and have 30% more CD44+/CD24-/low cells and in vivo proliferation. […]. The human breast carcinoma cell lines MCF-7 and MDA-MB-231 were purchased from the European Collection of Animal Cell Cultures (ECACC, Salisbury, UK). The SW-480 cells were a kind gift from Dr. Brian Flood, School of Biochemistry and Immunology, Trinity College Dublin. The human breast tumour cell line MCF-7 was cultured in Eagles minimum essential medium with 10% foetal bovine serum, 2 mM L-glutamine and 100 μg/mL penicillin/streptomycin. The medium was supplemented with 1% non-essential amino acids. The human breast tumour cell line MDA-MB-231 cells were maintained in Dulbecco’s modified Eagle’s medium (DMEM) with the addition of penicillin/streptomycin (100 µg/mL), 10% (v/v) foetal bovine serum and 2 mM L-glutamine (complete medium). Breast cancer cell line Hs578T and its isogenic subclone Hs578T(i)8 were a kind gift from Dr. Susan McDonnell, School of Chemical and Bioprocess Engineering, University College Dublin. SW-480 cells, triple-negative breast cancer Hs578T cells and invasive variant Hs578T8i cells were cultured in DMEM with GlutaMAX-I, with the same supplement in the absence of non-essential amino acids. HEK-293T cells (normal epithelial embryonic kidney cells) were cultured in DMEM with GlutaMAX-I in the absence of non-essential amino acids. The SW-480 cells were cultured in DMEM with GlutaMAX-I, with the same supplement in the absence of non-essential amino acids. All media contained 100 U/mL penicillin and 100 μg/mL streptomycin. The cells were seeded into pre-warmed complete medium (10 × 10^4 cells/mL) and maintained at a cell density of 2–19 × 10^5 cells /mL by the addition of fresh media. The cell number was monitored using a haemocytometer. Cells were maintained at 37 °C in 5% CO2 in a humidified incubator. […]
(§2) Figure 4 Antiproliferative activity of 3-fluoro β-lactams on MCF-7, MDA-MB-231, Hs578T and Hs578T isogenic subclone Hs578T(i)8 breast cancer cells and non-tumourigenic HEK-293T cells. […] Cell viability was expressed as a percentage of vehicle control (ethanol 1% (v/v))-treated cells. […] Cell viability was expressed as a percentage of vehicle control (ethanol 1% (v/v))-treated cells and was measured by AlamarBlue assay (average of three independent experiments). […]
(In general: The colour change of resazurin is a common sign of viable cells or microbes.)

The test system of the next assay is Hs578Ts(i)8 cells. Kind of assay: AlamarBlue cell viability assay. In kind it is cell-based. On the procedure: as §1, §2

As for `COc1ccc(/C=C\c2cc(OC)c(OC)c(OC)c2)cc1O` [CA-4, combretastatin A-4, reference compound], the concentration for half-maximal inhibition (IC50) came to 8 nM in the assay with Hs578T cells and 20 nM in the assay with Hs578Ts(i)8 cells.
